# Laboratory results as given in publication PMC10065799, “High-throughput profiling of sequence recognition by tyrosine kinases and SH2 domains using bacterial peptide display” (eLife, 2023).
# Legend:
# Grb2 SH2 domain = experiment: pTyr-Var library SH2 domain screen with SH2-dynabeads (enrichment scores)
# [1] = test system: 4G10 Platinum pan-phosphotyrosine antibody; experiment: Phosphorylated pTyr-Var library selection with biotinylated pan-phosphotyrosine antibody; type: binding, mouse; conditions: enrichment score, sheet SH2-vs-peptide
# Method: After the desired time of library phosphorylation, kinase activity was quenched with 25 mM EDTA and the cells were washed with PBS containing 0.2% BSA. Kinase-treated cells were then labeled with a 1:1000 dilution of biotinylated 4G10 Platinum anti-phosphotyrosine antibody (Millipore) for an hour on ice and washed with PBS containing 0.1% BSA and 2 mM EDTA (isolation buffer). The cells were finally resuspended in PBS containing 0.1% BSA. The phosphorylated, antibody-labeled cells were then mixed with magnetic beads from Dynabeads FlowComp Flexi kit (Invitrogen), at a ratio of 37.5 μL of washed beads per 50 μL of cell suspension, diluted into 450 μL of isolation buffer. The suspension was rotated at 4 °C for 30 minutes, then 375 μL of isolation buffer was added and the beads were separated from the bulk solution on a magnetic rack. The beads were washed once with 1 mL of isolation buffer, and then the supertantant were removed by aspiration. […] The bead/lysate mixture was centrifuged to pellet the beads and the mixture was stored at -20 °C.
# c-Src kinase domain = c-Src kinase domain (Homo sapiens, UniProt P12931); experiment: pTyr-Var library bacterial peptide display kinase screen (enrichment scores); type: biochemical
# c-Abl kinase domain = biological target: T1, c-Abl kinase domain (Mus musculus, UniProt P00520); experiment: as above; type: biochemical
# T1 sequence (P00520 242-493 limits assumed): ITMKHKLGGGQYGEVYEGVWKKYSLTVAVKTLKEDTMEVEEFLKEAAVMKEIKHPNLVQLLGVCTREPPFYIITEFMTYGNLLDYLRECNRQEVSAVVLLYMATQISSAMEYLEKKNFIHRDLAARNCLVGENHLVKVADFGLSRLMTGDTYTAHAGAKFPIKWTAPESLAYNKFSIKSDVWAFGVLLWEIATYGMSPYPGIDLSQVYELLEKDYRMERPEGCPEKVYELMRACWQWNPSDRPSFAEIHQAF
# Fes = experiment: as above; type: biochemical; conditions: mean of log2 of enrichment over R1-R6
# FGFR1 kinase domain = experiment: as above; type: biochemical, human
# Fer kinase domain = experiment: as above; type: biochemical, mouse
# EPHB2 kinase domain = experiment: as above; type: biochemical, human
# SHP2 C-SH2 domain = experiment: pTyr-Var library SH2 domain screen with SH2-dynabeads (enrichment scores)
# Hck kinase domain = experiment: pTyr-Var library bacterial peptide display kinase screen (enrichment scores); type: biochemical, human; conditions: enrichment score
# AncSZ kinase domain = experiment: as above; type: biochemical
# c-Src SH2 domain = c-Src SH2 domain (Homo sapiens, UniProt P12931); experiment: pTyr-Var library SH2 domain screen with SH2-dynabeads (enrichment scores); conditions: sheet c-Src
# MERTK kinase domain = experiment: pTyr-Var library bacterial peptide display kinase screen (enrichment scores); type: biochemical, human
# Fyn kinase domain = experiment: as above; type: biochemical, human
# FGFR3 kinase domain = experiment: as above; type: biochemical, human
# Jak2 = experiment: as above; type: biochemical, human
# EPHB1 kinase domain = experiment: as above; type: biochemical, human
# [2] = mean of log2 of enrichment over R1-R4
# [3] = pTyr-Var library, enrichment score, replicate 1
# [4] = pTyr-Var library, enrichment score, replicate 3
# [5] = pTyr-Var library, enrichment score, replicate 4
# [6] = mean of log2 enrichment of reference peptide, n = 5
# [7] = pTyr-Var library, reference peptide enrichment, mean of n = 5
# [8] = mean of log2 enrichment of reference peptide, n = 4
# [9] = pTyr-Var library, reference peptide enrichment, mean of n = 4
sequence,measurement,setting,value
LRVGFYESDVM [A2M_Y708],mean of log2(reference),"Grb2 SH2 domain; Grb2 SH2, mean of log2 enrichment of reference, R1-R3",-0.1031
same,ref. mean,"Grb2 SH2 domain; reference peptide enrichment score, Grb2 SH2, mean of R1-R3",0.9341
same,4G10 (mean),[1],1.415
same,c-Src mean of log2(enrichment),c-Src kinase domain; [2],0.391
same,c-Src enrich. R1,c-Src kinase domain; [3],1.08
same,c-Src enrich. R3,c-Src kinase domain; [4],1.298
same,c-Src enrich. R4,c-Src kinase domain; [5],1.223
same,c-Abl mean of log2(enrichment),c-Abl kinase domain; [2],0.8901
same,c-Abl enrich. R1,c-Abl kinase domain; [3],1.339
same,c-Abl enrich. R3,c-Abl kinase domain; [4],1.7654
same,c-Abl enrich. R4,c-Abl kinase domain; [5],2.061
same,Fes mean of log2(enrichment),Fes,1.487
same,mean of log2(reference),FGFR1 kinase domain; [6],0.2144
same,ref. mean,FGFR1 kinase domain; [7],1.392
same,Fer mean of log2(enrichment),Fer kinase domain; [2],0.6409
same,Fer enrich. R1,Fer kinase domain; [3],1.74
same,Fer enrich. R3,Fer kinase domain; [4],2.063
same,Fer enrich. R4,Fer kinase domain; [5],1.716
same,mean of log2(reference),EPHB2 kinase domain; [8],-0.3867
same,ref. mean,EPHB2 kinase domain; [9],0.9336
same,mean of log2(reference),"SHP2 C-SH2 domain; SHP2-C SH2, mean of log2 enrichment of reference, R1-R3",0.01184
same,ref. mean,"SHP2 C-SH2 domain; reference peptide enrichment score, SHP2-C SH2, mean of R1-R3",1.018
same,Hck enrich. R1,Hck kinase domain; replicate 1,1.102
same,Hck enrich. R3,Hck kinase domain; replicate 3,1.0148
same,Hck enrich. R4,Hck kinase domain; replicate 4,0.9933
same,AncSZ mean of log2(enrichment),AncSZ kinase domain; mean of log2 of enrichment over R1-R5,1.515
same,AncSZ enrich. R3,AncSZ kinase domain; [4],3.27
same,AncSZ enrich. R4,AncSZ kinase domain; [5],3.639
same,AncSZ enrich. R5,"AncSZ kinase domain; pTyr-Var library, enrichment score, replicate 5",3.918
same,mean of log2(reference),"c-Src SH2 domain; mean of log2 enrichment of reference peptide, R1-R3",2.001
same,ref. mean,"c-Src SH2 domain; reference peptide, mean of R1-R3",4.137
same,mean of log2(reference),MERTK kinase domain; [8],1.359
same,ref. mean,MERTK kinase domain; [9],2.61
same,Fyn mean of log2(enrichment),Fyn kinase domain; [2],-0.1485
same,Fyn enrich. R1,Fyn kinase domain; [3],1.939
same,Fyn enrich. R3,Fyn kinase domain; [4],1.639
same,Fyn enrich. R4,Fyn kinase domain; [5],0.1487
same,mean of log2(reference),FGFR3 kinase domain; [6],1.27
same,ref. mean,FGFR3 kinase domain; [7],2.887
same,Jak2 mean of log2(enrichment),Jak2; mean of log2 of enrichment over R1-R3,0.9825
same,Jak2 enrichment (mean),"Jak2; pTyr-Var library, enrichment score, mean of replicates R1-R3",2.035
same,Jak2 enrich. R1,Jak2; [3],2.166
same,Jak2 enrich. R3,Jak2; [4],1.407
same,mean of log2(reference),EPHB1 kinase domain; [8],0.89
same,EPHB1 enrichment (mean),"EPHB1 kinase domain; pTyr-Var library, enrichment score, mean of replicates",1.865
same,ref. mean,EPHB1 kinase domain; [9],1.865
